Several values for one entry are separate records, joined by “and”; a condition that tells them apart may be missing. Identical values can stand only once.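 Dose response: 5 concentrations. Exposure: 48 h. Format: 96-well plates. Endpoint: linear interpolation; highest concentration if not reached. GI50 is the concentration that inhibits growth by half. The concentration for full growth arrest is given as TGI.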
Experiments:
Test in all cases: inhibition of tumour cell growth, NCI panel, 48 h
A549 NSCLC = test system: A549 NSCLC
COLO 205 colon = test system: COLO 205 colon
HCC-2998 colon = test system: HCC-2998 colon
HT29 colon = test system: HT29 colon
NCI-H226 lung = test system: NCI-H226 lung
NCI-H460 lung = test system: NCI-H460 lung
SF-295 CNS = test system: SF-295 CNS
SN12C renal = test system: SN12C renal
U251 CNS = test system: U251 CNS
UACC-257 melanoma = test system: UACC-257 melanoma

Row | Structure (SMILES) | GI50 (A549 NSCLC) [µM] | TGI (A549 NSCLC) [µM] | GI50 (COLO 205 colon) [µM] | TGI (COLO 205 colon) | GI50 (HCC-2998 colon) [µM] | TGI (HCC-2998 colon) | GI50 (HT29 colon) | TGI (HT29 colon) | GI50 (NCI-H226 lung) [µM] | TGI (NCI-H226 lung) [µM] | GI50 (NCI-H460 lung) | TGI (NCI-H460 lung) | GI50 (SF-295 CNS) [µM] | TGI (SF-295 CNS) [µM] | GI50 (SN12C renal) [µM] | TGI (SN12C renal) [µM] | GI50 (U251 CNS) [µM] | TGI (U251 CNS) | GI50 (UACC-257 melanoma) | TGI (UACC-257 melanoma)
1 | C=C1C(=O)O[C@H]2[C@H]1CC/C(COC(=O)NCCCCNC(=O)OC/C1=C/CC[C@@]3(C)O[C@H]3[C@H]3OC(=O)C(=C)[C@@H]3CC1)=C\CC[C@@]1(C)O[C@@H]21 | 8.01 | 23.1 | 0.466 | 1.8 µM | 2.35 | 4.78 µM | 0.605 µM | 2.05 µM | 11.4 | 30.5 | 4.61 µM | 18 µM | 13 | 27.4 | 2.75 | 10.1 | 2.94 | 9.83 µM | 1.68 µM | 4.99 µM
2 | Cc1cc(NS(=O)(=O)c2ccc(Nc3c4ccccc4nc4c(C(=O)N5CCN(CCO)CC5)cccc34)cc2)no1 |  | > 100 |  | > 100 µM |  | > 100 µM |  | > 100 µM |  | > 100 |  | > 100 µM |  | > 100 |  | > 100 |  | > 100 µM |  | > 100 µM
3 | COc1ccc(-c2nc3ccccn3c2/C=C/C(=O)c2cc(OC)c(OC)c(OC)c2)cc1OC | 3.86 | 30.7 | 3.92 | > 100 µM | 3.79 | 15.1 µM | 3.2 µM | > 100 µM | 6.1 | 40.6 | 2.99 µM | 12.6 µM | 1.85 | 4.42 | 4.1 | 83.7 | 2.91 | 65.5 µM | 3.24 µM | 15.4 µM
4 | COc1c(C(=O)/C=C/c2ccccc2)c(O)cc2occc12 | 8.62 | 29 | 15.7 | 29.9 µM | 3.76 | 14.3 µM | 6.34 µM | 35.6 µM | 6.03 | 20.8 | 3.02 µM | 8.92 µM | 7.83 | 21.4 | 4.48 | 15.8 | 4.39 | 16.1 µM | 7.01 µM | 19.7 µM
5 | CC(C)c1c(O)c(O)c2c(c1O)C(=O)C(O)=C1C(C)(C)CCC[C@@]12C |  | 14.3 |  | 3.6 µM |  | 10.4 µM |  | 10.2 µM |  | 7.88 |  | 10.1 µM |  | 12 |  | 18.7 |  | 11.1 µM |  | 8.61 µM
6 | NS(=O)(=O)c1ccc(-c2ccc3c(NC(=O)C4CC4)n[nH]c3c2)cc1 | > 25 | > 25 | > 25 | > 25 µM | > 25 | > 25 µM | > 25 µM | > 25 µM | > 25 | > 25 | > 25 µM | > 25 µM | > 25 | > 25 | > 25 | > 25 | > 25 | > 25 µM | > 25 µM | > 25 µM
7 | COc1cc2c3c(n(CCCN)c(=O)c2cc1OC)-c1ccc(C#N)cc1C3=O | 5.53 | 22.1 | 13.2 | 28.7 µM | 3.05 | 15 µM | 8.52 µM | 29.1 µM | 17.3 | 38 | 7.16 µM | 26.9 µM | 11.1 | 33.6 | 16.8 | 32.8 | 13 | 28.4 µM | 28.5 µM | > 100 µM
8 | COc1cc2[nH]c3c(c2cc1OC)CCN[C@]31CC[C@]2(CC3c4c(cc(OC)c(O)c42)CCN3C)C[C@H]1OC (some centres not stated) |  | 68.8 |  | 27.3 µM |  | 29.8 µM |  | 63.3 µM |  | > 100 |  | 63.5 µM |  | 36.4 |  | 62.8 |  | 36 µM |  | 37.1 µM
9 | C=CCCCCC/C=C\[C@@H](O)C#CC#C/C=C/CO | > 100 | > 100 | > 100 | > 100 µM | > 100 | > 100 µM | > 100 µM | > 100 µM | 25.5 | 57.6 | > 100 µM | > 100 µM | > 100 | > 100 | 57.5 | > 100 | 38.7 | > 100 µM | > 100 µM | > 100 µM
10 | O=C(Nc1cc(Cl)c(Cl)cc1Cl)C(=O)C1C(=O)NC(=S)NC1=O |  | > 100 |  | > 100 µM |  | > 100 µM |  | > 100 µM |  | > 100 |  | > 100 µM |  | > 100 |  | > 100 |  | > 100 µM |  | > 100 µM
11 | CCCCC(CC)COC(=O)C[N+](C)(C)CCOC(c1ccccc1)c1ccccc1 (configuration not stated) | 17.8 | 38.9 | 1.93 | 4.12 µM | 1.75 | 3.29 µM | 3.55 µM | 13.1 µM | 6.83 | 27.4 | 4.77 µM | 18.8 µM | 9.63 | 26.3 | 2.43 | 6 | 1.87 | 3.81 µM | 2.56 µM | 7.6 µM
12 | COc1ccc(CN2CC(C)(C)C2=O)c(OC)c1 |  | > 100 |  | > 100 µM |  | > 100 µM |  | > 100 µM |  | > 100 |  | > 100 µM |  | > 100 |  | > 100 |  | > 100 µM |  | > 100 µM
13 | Cc1nnc(NS(=O)(=O)c2ccc(N=Nc3cc(N=Nc4ccc(S(=O)(=O)Nc5nnc(C)s5)cc4)c4c(NC(=O)C(Cl)Cl)cccc4c3OC(=O)C(Cl)Cl)cc2)s1 (tested in a mixture with another compound) |  | 60.2 |  | > 100 µM |  | 62.1 µM |  | > 100 µM |  |  |  | > 100 µM |  | > 100 |  | > 100 |  | > 100 µM |  | > 100 µM
14 | O=S(=O)(c1ccc(NC(=S)NC23CC4CC(CC(C4)C2)C3)cc1)N1CCCCC1 | 3.07 | > 100 | 1.82 | 3.22 µM | 3.29 | 19.9 µM | 2.49 µM | 5.84 µM | 4.05 | > 100 | 3.35 µM | > 100 µM |  |  | 3.23 | > 100 | 2.92 | 13.3 µM | 2.49 µM | 6.8 µM
15 | COc1cc(Cc2nccc3cc(OC)c(OC)cc23)c(C(C)=O)cc1OC | > 750 | > 750 | 5.36 | 40.1 µM and 300 µM |  | 300 µM and > 750 µM | 96.8 µM and 140 µM | 300 µM and 626 µM |  |  | 52.9 µM and 85.5 µM and 340 µM | 300 µM and > 750 µM | 224 | > 750 |  | 30 |  | 300 µM and > 750 µM | 55 µM and 49 µM and 35.4 µM | 116 µM and 144 µM

Source: PubChem BioAssay (NCI)
